The text below walks through data of ChEMBL document CHEMBL1201862, “PubChem BioAssay data set” (2004).

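Test compounds were applied to cells in 96-well plates for 48 hours at 5 doses. Here, GI50 denotes the concentration required for 50% inhibition of growth.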 Active and inactive are the calls of the source. No stated cut-off is given here; in the data, active = GI50 up to about 1.1 µM and inactive = higher. Where only a bound is given, the exact number is not on record here.

Some test systems named below: KM12; DU-145; PC-3; U-251; SW-620; RPMI-8226; UO-31; SF-539; MCF7; SF-268; Hs-578T; SNB-75; SK-MEL-2; TK-10; MDA-MB-231; 786-0; Malme-3M; LOX IMVI; UACC-257; MOLT-4.
Common to all, as to test: inhibition of tumour cell growth, NCI panel, 48 h

Take `O=C(O)C[S+]([O-])c1ccc2c3c(cccc13)C(=O)c1ccccc1-2` (stereo not given): the GI50 with KM12, in the assay on DU-145, with PC-3, with U-251, in the assay on SW-620 and in the assay on RPMI-8226 was > 100 µM (inactive) throughout. Besides, the GI50 with UO-31, with SF-539, in the assay on MCF7, in the assay with SF-268, in the assay with Hs-578T and in the assay with SNB-75 was > 100 µM (inactive) in each case. The GI50 with SK-MEL-2, in the assay on TK-10, in the assay on MDA-MB-231, in the assay with 786-0, with Malme-3M and with LOX IMVI was > 100 µM (inactive) each time. Besides, the GI50 in the assay with UACC-257 is > 100 µM (inactive).

As to `NC(=O)C(C(N)=O)=C(O)/C(O)=C/C(=O)c1ccccc1`, the GI50 is > 100 µM (inactive) in the assay on KM12; > 100 µM (inactive) in the assay on DU-145; > 100 µM (inactive) in the assay on PC-3; > 100 µM (inactive) in the assay with U-251; 81.1 µM (inactive) in the assay on SW-620; 12.6 µM (inactive) with RPMI-8226. Also, the GI50 in the assay with UO-31 is > 100 µM (inactive); in the assay with SF-539, > 100 µM (inactive); with MCF7, 0.849 µM (active); with SF-268 it was > 100 µM (inactive); with Hs-578T, > 100 µM (inactive); in the assay with SNB-75 it was > 100 µM (inactive). Besides, the GI50 is > 100 µM (inactive) in the assay with SK-MEL-2; > 100 µM (inactive) with TK-10; > 100 µM (inactive) in the assay on MDA-MB-231; > 100 µM (inactive) in the assay with 786-0; 39.9 µM (inactive) in the assay on Malme-3M; 89.9 µM (inactive) in the assay with LOX IMVI. Besides, in the assay with UACC-257, the GI50 is > 100 µM (inactive).

Regarding `COc1ccc2oc(=N)c(C(=O)Nc3cccc4ccccc34)cc2c1`, the GI50 in the assay on KM12 was 27.7 µM (inactive); in the assay with DU-145, 24 µM (inactive); with PC-3, 12.3 µM (inactive); with U-251, 13 µM (inactive); in the assay with SW-620, 7.57 µM (inactive); with RPMI-8226 it was 14.1 µM (inactive). The GI50 with UO-31 was 13 µM (inactive); in the assay with SF-539 it was 15.3 µM (inactive); with MCF7, 5.7 µM (inactive); with SF-268, 25.9 µM (inactive); in the assay with Hs-578T, 30.2 µM (inactive); with SNB-75, 10.2 µM (inactive). In addition, the GI50 was 18.8 µM (inactive) in the assay with SK-MEL-2; 19.6 µM (inactive) with TK-10; 26 µM (inactive) with MDA-MB-231; 11.8 µM (inactive) in the assay with 786-0; 8.65 µM (inactive) with Malme-3M; 32 µM (inactive) in the assay with UACC-257.

As to `O=C(CSc1n[nH]c(=O)[nH]c1=O)NNC(=O)c1cccc2nc3ccccc3nc12`, the GI50 was 79.3 µM (inactive) with KM12; 36.5 µM (inactive) with DU-145; > 100 µM (inactive) with PC-3; > 100 µM (inactive) with U-251; > 100 µM (inactive) in the assay on SW-620; > 100 µM (inactive) with RPMI-8226. Also, the GI50 was 71.6 µM (inactive) in the assay with SF-539; 38.2 µM (inactive) with MCF7; > 100 µM (inactive) in the assay with SF-268; 40.4 µM (inactive) in the assay with Hs-578T; > 100 µM (inactive) with SK-MEL-2; > 100 µM (inactive) in the assay with TK-10. The GI50 is > 100 µM (inactive) in the assay with MOLT-4; > 100 µM (inactive) with MDA-MB-231; > 100 µM (inactive) with 786-0; 26.5 µM (inactive) in the assay on Malme-3M; 46.1 µM (inactive) with LOX IMVI; 58.7 µM (inactive) in the assay with UACC-257.

For the compound `C=CCNC(=S)NC=C(C(N)=O)C(N)=O`, the GI50 in the assay on KM12, in the assay on DU-145, with PC-3, with U-251, in the assay with SW-620 and in the assay on RPMI-8226 was > 100 µM (inactive) each time. In addition, the GI50 with UO-31 was 87.9 µM (inactive); in the assay on SF-539, > 100 µM (inactive); in the assay with MCF7, > 100 µM (inactive); in the assay with SF-268 it was > 100 µM (inactive); in the assay on Hs-578T, > 100 µM (inactive); with SNB-75, > 100 µM (inactive). Besides, the GI50 in the assay with SK-MEL-2, with MOLT-4, with MDA-MB-231, with 786-0, with Malme-3M and in the assay with LOX IMVI was > 100 µM (inactive) in each case. In the assay on UACC-257, the GI50 was > 100 µM (inactive).

With `C=CCc1cccc2cc(C(=O)Nc3nc(C45CC6CC(CC(C6)C4)C5)cs3)c(=O)oc12`, the GI50 in the assay with KM12 was 28.1 µM (inactive); in the assay on DU-145, 44.6 µM (inactive); in the assay on PC-3 it was 29.6 µM (inactive); in the assay on U-251, 20.2 µM (inactive); in the assay on SW-620, 31.7 µM (inactive); in the assay with RPMI-8226 it was 26.9 µM (inactive). Moreover, the GI50 in the assay on UO-31 was 10.8 µM (inactive); with SF-539, > 100 µM (inactive); with MCF7, > 100 µM (inactive); in the assay with SF-268, 10.7 µM (inactive); with Hs-578T, 16.4 µM (inactive); in the assay on SNB-75, 24.2 µM (inactive). Also, the GI50 with TK-10 is 30.8 µM (inactive); in the assay with MOLT-4 it was 34.7 µM (inactive); with MDA-MB-231 it was 23.4 µM (inactive); with 786-0, 23.2 µM (inactive); in the assay with Malme-3M, 46 µM (inactive); in the assay with LOX IMVI it was 19.4 µM (inactive). Besides, the GI50 in the assay on UACC-257 was 32.8 µM (inactive).

`C=Cc1ccccc1C1(O)C=CC(OC)(OC)C=C1`: the GI50 in the assay on KM12 is 0.617 µM (active); in the assay on DU-145 it was 20.4 µM (inactive); with PC-3, 10.1 µM (inactive); in the assay on U-251, 3.66 µM (inactive); in the assay with SW-620, 3.8 µM (inactive); in the assay with RPMI-8226, 6.41 µM (inactive). Moreover, the GI50 was 7.24 µM (inactive) in the assay on UO-31; 2.72 µM (inactive) with SF-539; 2.94 µM (inactive) in the assay with MCF7; 9.62 µM (inactive) in the assay with SF-268; 21.4 µM (inactive) with Hs-578T; 18.8 µM (inactive) in the assay with SNB-75. Moreover, the GI50 in the assay on SK-MEL-2 is 17.3 µM (inactive); in the assay on TK-10, 3.25 µM (inactive); in the assay with MOLT-4, 4 µM (inactive); with MDA-MB-231, 10.5 µM (inactive); in the assay on 786-0 it was 5.04 µM (inactive); in the assay on Malme-3M, 13.5 µM (inactive). Further, in the assay on UACC-257, the GI50 is 11.8 µM (inactive).

For the compound `COCCN(C(=O)c1ccccc1)C1CCC2(SCCS2)c2[nH]c3ccccc3c21` (stereo not given), the GI50 in the assay on KM12 was 28.5 µM (inactive); in the assay with DU-145, > 100 µM (inactive); with PC-3 it was 20 µM (inactive); in the assay with U-251, 46.9 µM (inactive); in the assay on SW-620, 33.3 µM (inactive); in the assay with RPMI-8226, 20.2 µM (inactive). The GI50 with UO-31 was 40.7 µM (inactive); in the assay on SF-539 it was 85.5 µM (inactive); in the assay with MCF7, 37.5 µM (inactive); with SF-268 it was > 100 µM (inactive); in the assay with Hs-578T, 29.4 µM (inactive); in the assay on SNB-75 it was 70.1 µM (inactive). The GI50 was 79.1 µM (inactive) in the assay with TK-10; 18.5 µM (inactive) in the assay with MOLT-4; 57.7 µM (inactive) in the assay with MDA-MB-231; 60.8 µM (inactive) in the assay with 786-0; 36.2 µM (inactive) with Malme-3M; 57.7 µM (inactive) with LOX IMVI. Moreover, in the assay with UACC-257, the GI50 is 59.2 µM (inactive).

`CC(C)C1=C2CCC3(C)C(CCC4C5C6OCC5(CCC6(C)C)CCC43C)C2(C)CC1` (stereo not given): the GI50 in the assay with KM12 was 16.9 µM (inactive); with DU-145, 20.2 µM (inactive); with PC-3, > 10 µM (inactive); in the assay on U-251, 19.1 µM (inactive); in the assay with SW-620, 22.5 µM (inactive); with RPMI-8226, 13.6 µM (inactive). Besides, the GI50 in the assay with UO-31 is 18.1 µM (inactive); in the assay on SF-539 it was 16.9 µM (inactive); in the assay with MCF7, 23.4 µM (inactive); in the assay on SF-268 it was 28.8 µM (inactive); in the assay with Hs-578T it was 22.8 µM (inactive); in the assay on SK-MEL-2, 29.6 µM (inactive). The GI50 is 16.7 µM (inactive) in the assay on TK-10; 16.3 µM (inactive) in the assay on MOLT-4; 20 µM (inactive) in the assay with MDA-MB-231; 17.7 µM (inactive) in the assay with 786-0; 20.8 µM (inactive) in the assay with Malme-3M; 14.4 µM (inactive) in the assay on LOX IMVI. In addition, the GI50 in the assay with UACC-257 is 18.1 µM (inactive).

`N#Cc1c(-c2ccc(F)cc2)c(-c2ccc(F)cc2)nn(CCO)c1=O`: the GI50 is 0.126 µM (active) in the assay with KM12; 0.743 µM (active) in the assay with DU-145; 0.416 µM (active) in the assay with PC-3; 0.178 µM (active) in the assay on U-251; 0.213 µM (active) in the assay on RPMI-8226; 1.38 µM (inactive) in the assay on UO-31. Moreover, the GI50 in the assay on SF-539 is 0.198 µM (active); with MCF7, 3.16 µM (inactive); with SF-268, 0.875 µM (active); with Hs-578T, 0.885 µM (active); with SNB-75, 0.183 µM (active); in the assay on SK-MEL-2, < 0.01 µM (active). Also, the GI50 with TK-10 is 3.36 µM (inactive); in the assay with MOLT-4, 0.242 µM (active); in the assay with MDA-MB-231, 0.661 µM (active); in the assay with 786-0, 0.421 µM (active); with Malme-3M, 0.743 µM (active); with UACC-257 it was 1.19 µM (inactive).

On to `CCN(CC)C(=S)SC` [METHYLDIETHYL CARBAMODITHIOATE], for which the GI50 is > 100 µM (inactive) in the assay with DU-145; 52.5 µM (inactive) in the assay with PC-3; > 100 µM (inactive) in the assay with U-251; > 100 µM (inactive) in the assay on SW-620; > 100 µM (inactive) in the assay on RPMI-8226; > 100 µM (inactive) in the assay on SF-539. Further, the GI50 in the assay on MCF7, in the assay on SF-268, with Hs-578T, with SNB-75, in the assay with SK-MEL-2 and in the assay with TK-10 was > 100 µM (inactive) in each case. For the same compound, the GI50 in the assay with MOLT-4, with MDA-MB-231, with 786-0, in the assay on Malme-3M, in the assay with LOX IMVI and in the assay with UACC-257 was > 100 µM (inactive) throughout.
